The record followed here is PubChem BioAssay (NCI).

Among the test systems are NCI-H522 lung; PC-3 prostate; CCRF-CEM leukemia; SN12C renal; HT29 colon; SF-295 CNS; NCI/ADR-RES ovarian; SK-OV-3 ovarian.
Common to all, as to experiment: NCI anticancer screen, dose series, 48 h

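1) Cells in 96-well plates. 2) Compound, 48 h, 5 concentrations. 3) Linear interpolation between surrounding doses. 4) Unreached endpoint = highest concentration. TGI is the concentration that stops growth completely.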 Some results are limits rather than exact numbers.

For the compound `C=CCC1NCCC2=C1C(S(=O)(=O)c1ccc(C)cc1)c1ccccc12` (centres undefined), the TGI in the assay with NCI-H522 lung is 26 µM; in the assay with PC-3 prostate it was 22.2 µM; in the assay on CCRF-CEM leukemia, 28.6 µM; in the assay on SN12C renal, 28.5 µM; in the assay on HT29 colon, 29.4 µM; with SF-295 CNS it was 27.1 µM. Also, the values for the TGI in the assay on NCI/ADR-RES ovarian and in the assay with SK-OV-3 ovarian were 28.5 µM and 33.2 µM, respectively.

As to `O=C1c2ccccc2C(=O)N1C(=S)c1ccccc1`, the TGI with NCI-H522 lung, with PC-3 prostate, with CCRF-CEM leukemia, in the assay with SN12C renal, in the assay on HT29 colon and in the assay with SF-295 CNS was above 100 µM each time. The TGI in the assay on NCI/ADR-RES ovarian and with SK-OV-3 ovarian was above 100 µM in each case.

Regarding `N=C(N)n1[nH]c2c(c1=O)CCC2`, the TGI with NCI-H522 lung, with PC-3 prostate, in the assay on CCRF-CEM leukemia, in the assay with SN12C renal, in the assay with HT29 colon and in the assay with SF-295 CNS was above 100 µM each time. The TGI in the assay on NCI/ADR-RES ovarian and in the assay on SK-OV-3 ovarian was above 100 µM throughout.

Regarding `C[C@H](CC[C@@H](O)C(C)(C)O)[C@H]1CC[C@@]2(C)[C@@H]3CC=C4[C@@H](CC[C@H](OC5OC(CO)C(O)C(O)C5O)C4(C)C)[C@]3(C)C(=O)C[C@]12C` (some centres undefined), the TGI was above 100 µM with NCI-H522 lung; above 100 µM with PC-3 prostate; 70.9 µM with CCRF-CEM leukemia; above 100 µM in the assay on SN12C renal; above 100 µM in the assay with HT29 colon; above 100 µM with SF-295 CNS. For the same compound, the TGI in the assay with NCI/ADR-RES ovarian and in the assay on SK-OV-3 ovarian was above 100 µM throughout.

Take `CC1=CC(=O)c2cccc(NC3=NCCO3)c21`: the TGI in the assay with NCI-H522 lung, with PC-3 prostate, in the assay with CCRF-CEM leukemia, in the assay with SN12C renal, with HT29 colon and in the assay with SF-295 CNS was above 100 µM in each case. The TGI in the assay on NCI/ADR-RES ovarian is 82.5 µM; in the assay on SK-OV-3 ovarian, above 100 µM.

`COc1ccc(N2C(=O)C3c4[nH]c5ccccc5c4C4CCC(C(C)C)CC4C3C2=O)cc1` (centres undefined): the TGI with NCI-H522 lung, in the assay on PC-3 prostate, in the assay on CCRF-CEM leukemia, with SN12C renal, in the assay on HT29 colon and in the assay with SF-295 CNS was above 100 µM in each case. Moreover, the TGI with NCI/ADR-RES ovarian and in the assay on SK-OV-3 ovarian was above 100 µM each time.

Consider `Clc1ccc(OCC2NC3C=CC32)cn1` (centres undefined), for which the TGI in the assay with NCI-H522 lung, with PC-3 prostate, in the assay with CCRF-CEM leukemia, in the assay on SN12C renal, in the assay with HT29 colon and in the assay with SF-295 CNS was above 100 µM in each case. Moreover, the TGI in the assay on NCI/ADR-RES ovarian and with SK-OV-3 ovarian was above 100 µM in each case.

Turning to `COC(=O)C1=C(OC(=O)/C(=C/c2ccc(Cl)cc2)c2ccccc2)C(C(=O)OC)[C@@]2(O)[C@@H](C(=O)OC)[C@H](C)C[C@@H]1[C@@H]2C(=O)OC` (some centres undefined), the TGI with NCI-H522 lung, in the assay on PC-3 prostate, with CCRF-CEM leukemia, in the assay on SN12C renal, in the assay with HT29 colon and with SF-295 CNS was above 100 µM in each case. Further, the TGI with NCI/ADR-RES ovarian and in the assay on SK-OV-3 ovarian was above 100 µM each time.

On to `N#CSCC1COc2ccccc2O1` (centres undefined), for which the TGI in the assay on NCI-H522 lung was 7.05 µM; in the assay on PC-3 prostate, above 10 µM; with CCRF-CEM leukemia it was 8.3 µM; with SN12C renal, above 10 µM; in the assay with HT29 colon, above 10 µM; with SF-295 CNS, above 10 µM. In addition, the TGI in the assay on NCI/ADR-RES ovarian and with SK-OV-3 ovarian was above 10 µM in each case.

For `O=C(CCc1cc(O)cc(O)c1)NCCc1ccc(O)c(O)c1`, the TGI in the assay on NCI-H522 lung is above 100 µM; with PC-3 prostate, above 100 µM; with CCRF-CEM leukemia it was 56.1 µM; in the assay with SN12C renal, above 100 µM; with HT29 colon, above 100 µM; with SF-295 CNS, above 100 µM. Besides, the TGI in the assay on NCI/ADR-RES ovarian and in the assay with SK-OV-3 ovarian was above 100 µM throughout.

Regarding `O=C1CCC2=C(CCC2)N1CCc1ccc2c(c1)OCO2`, the TGI in the assay on NCI-H522 lung, with PC-3 prostate, in the assay with CCRF-CEM leukemia, in the assay with SN12C renal, in the assay on HT29 colon and with SF-295 CNS was above 100 µM throughout. In addition, the TGI in the assay on NCI/ADR-RES ovarian and with SK-OV-3 ovarian was above 100 µM in each case.

`CCCCCCC(CCl)c1sc(-c2csc(CCNC(=O)OC(C)(C)C)n2)nc1C(=O)OC` (centres undefined): the TGI with NCI-H522 lung was above 100 µM; in the assay with PC-3 prostate it was 63.8 µM; in the assay with CCRF-CEM leukemia it was above 100 µM; with SN12C renal, 38.9 µM; with HT29 colon it was 51.2 µM; with SF-295 CNS, above 100 µM. Besides, the values for the TGI with NCI/ADR-RES ovarian and in the assay with SK-OV-3 ovarian were 14.8 µM and 88.2 µM, respectively.

For `CC(/C=N/NC1=NCCCCN1)=N\NC1=NCCCCN1`, the TGI with NCI-H522 lung, with PC-3 prostate, in the assay with CCRF-CEM leukemia, in the assay on SN12C renal, in the assay on HT29 colon and in the assay on SF-295 CNS was above 100 µM in each case. The TGI with NCI/ADR-RES ovarian and in the assay on SK-OV-3 ovarian was above 100 µM in each case.
